The source of these data is ChEMBL document CHEMBL1147703, “Synthesis of a potent 5'-methylthioadenosine/S-adenosylhomocysteine (MTAN) inhibitor” (Bioorg Med Chem Lett, 2006).

The target of this assay is 5'-methylthioadenosine/S-adenosylhomocysteine nucleosidase (Escherichia coli O157:H7, UniProt P0AF14). Put plainly: Inhibition of Escherichia coli MTAN.

SMILES strings stand for the structures. pKi: −log10 of the molar value.

5'-methylthioadenosine/S-adenosylhomocysteine nucleosidase, sequence (P0AF14 whole entry): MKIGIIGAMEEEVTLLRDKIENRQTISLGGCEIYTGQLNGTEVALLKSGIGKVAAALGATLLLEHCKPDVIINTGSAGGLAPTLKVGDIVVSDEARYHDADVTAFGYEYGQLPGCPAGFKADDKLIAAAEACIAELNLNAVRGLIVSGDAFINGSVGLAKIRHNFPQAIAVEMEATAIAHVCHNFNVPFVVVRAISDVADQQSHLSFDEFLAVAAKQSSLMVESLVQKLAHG

As for `Nc1ncnc2c([C@@H]3N[C@H](CSCCC(N)C(=O)O)[C@@H](O)[C@H]3O)c[nH]c12` (stereo partly specified), the negative-log Ki (pKi) (commonly the Ki on a negative log10 scale, so that one unit is a factor of ten) is 8.77.
